In ChEMBL document CHEMBL6153122, “Antimycobacterial Activities of the Zanthoxylum leprieurii Metabolite Adubangoamide and Non-Natural Fagaramide Analogues” (2025) one finds MIC data, which are given here for ten compounds.

Test [1] concerns Mycobacterium tuberculosis. Kind of test: Antimycobacterial activity against multidrug-resistant Mycobacterium tuberculosis 375 by microplate Alamar blue assay. It is filed as functional.
The test system of test [2] is Mycobacterium tuberculosis. Kind of test: Antimycobacterial activity against multidrug-resistant Mycobacterium tuberculosis 375. It is filed as functional.

Converted amounts (≈) assume the structure as drawn.

Regarding `O=C(/C=C/c1ccc2c(c1)OCO2)NCc1ccccc1`, the MIC in test [1] amounted to 667 µM (≈ 188 µg/mL).

As for `CN(C)c1ccc(CNC(=O)/C=C/c2ccc3c(c2)OCO3)cc1`, in test [1], the MIC came to 3560 µM (≈ 1150 µg/mL).

`CC(C)=CCOc1ccc(/C=C/C(=O)NCC(C)C)cc1`: in test [1], the minimal inhibitory concentration (MIC) turned out to be 1200 µM (≈ 345 µg/mL).

Take `O=C(/C=C/c1ccc2c(c1)OCO2)NCc1ccc(N2CCC(C(F)(F)F)CC2)cc1`: in test [1], 2310 µM (≈ 1000 µg/mL) was the least that counted as inhibitory (MIC). Against the preceding compound, the MIC is about 1.9-fold higher.

The compound `O=C(/C=C/c1ccc2c(c1)OCO2)NCc1ccccc1Cl` displayed a minimal inhibitory concentration (MIC) in test [1] of 792 µM (≈ 250 µg/mL).

The compound `O=C(/C=C/c1ccc2c(c1)OCO2)NCc1ccc(C(F)(F)F)cc1F` came in with a minimal inhibitory concentration (MIC) in test [1] of 1020 µM (≈ 375 µg/mL).

Compound `O=C(/C=C/c1ccc2c(c1)OCO2)NCc1cc(F)cc(F)c1` displayed a minimum inhibitory concentration (MIC) in test [1] of 788 µM (≈ 250 µg/mL). This MIC and that of the compound before are within 1.5-fold of each other.

In turn, `O=C(/C=C/c1ccc2c(c1)OCO2)NCc1ccc(N2CCC(c3ccc(F)cc3)CC2)cc1` displayed an MIC in test [1] of 545 µM (≈ 250 µg/mL). This MIC and that of the compound before are within 1.5-fold of each other.

In test [1], `COc1cccc(CNC(=O)/C=C/c2ccc3c(c2)OCO3)c1` displayed a minimum inhibitory concentration (MIC) of 803 µM (≈ 250 µg/mL).

Regarding `CC(C)CNC(=O)/C=C/c1ccc2c(c1)OCO2` [FOGARAMIDE], it took 1010 µM (≈ 250 µg/mL) to inhibit growth in test [2] (MIC). This lies in the millimolar range.
